pIC50: −log10 of the molar value.
Legend:
[1] = biological target: Recombinant G2019S-LRRK2 protein (Homo sapiens (Human), UniProt Q5S007, G2019S); experiment: LRRK2 kinase activity, LanthaScreen TR-FRET assay (G2019S); assay type: biochemical; details: LRRKtide 400 nM, 25 μM ATP, 60 min
Experimental: (§1) LRRK2 kinase activity was measured using a LanthaScreen™ Kinase Activity Assay from ThermoFisher Scientific. Recombinant wild type or G2019S-LRRK2 protein (Life Technologies, PR8604B or PV4881, respectively), was incubated with a fluorescein-labeled peptide substrate called LRRKtide that is based upon ezrin/radixin/moesin (ERM) (Life Technologies, PV4901) in the presence of ATP and serially diluted compound. […] Compound-dependent inhibition of the TR-FRET signal was used to generate a concentration-response curve for IC50 determination.
(§2) After 60 min incubation at room temperature, the reaction was stopped by addition of 10 μL of 2× stop solution containing a final concentration of 2 nM anti-pERM antibody and 10 mM EDTA. […] The ratio of the 520 nm and 495 nm emission was used to analyze the data.

[2] = biological target: Recombinant wild type LRRK2 protein (Homo sapiens (Human), UniProt Q5S007); experiment: LRRK2 kinase activity, LanthaScreen TR-FRET assay (wild type); assay type: biochemical; details: LRRKtide 400 nM, 25 μM ATP, 60 min; read-out: LRRK2 WT IC50
Chain of Recombinant wild type LRRK2 protein (Q5S007 whole entry): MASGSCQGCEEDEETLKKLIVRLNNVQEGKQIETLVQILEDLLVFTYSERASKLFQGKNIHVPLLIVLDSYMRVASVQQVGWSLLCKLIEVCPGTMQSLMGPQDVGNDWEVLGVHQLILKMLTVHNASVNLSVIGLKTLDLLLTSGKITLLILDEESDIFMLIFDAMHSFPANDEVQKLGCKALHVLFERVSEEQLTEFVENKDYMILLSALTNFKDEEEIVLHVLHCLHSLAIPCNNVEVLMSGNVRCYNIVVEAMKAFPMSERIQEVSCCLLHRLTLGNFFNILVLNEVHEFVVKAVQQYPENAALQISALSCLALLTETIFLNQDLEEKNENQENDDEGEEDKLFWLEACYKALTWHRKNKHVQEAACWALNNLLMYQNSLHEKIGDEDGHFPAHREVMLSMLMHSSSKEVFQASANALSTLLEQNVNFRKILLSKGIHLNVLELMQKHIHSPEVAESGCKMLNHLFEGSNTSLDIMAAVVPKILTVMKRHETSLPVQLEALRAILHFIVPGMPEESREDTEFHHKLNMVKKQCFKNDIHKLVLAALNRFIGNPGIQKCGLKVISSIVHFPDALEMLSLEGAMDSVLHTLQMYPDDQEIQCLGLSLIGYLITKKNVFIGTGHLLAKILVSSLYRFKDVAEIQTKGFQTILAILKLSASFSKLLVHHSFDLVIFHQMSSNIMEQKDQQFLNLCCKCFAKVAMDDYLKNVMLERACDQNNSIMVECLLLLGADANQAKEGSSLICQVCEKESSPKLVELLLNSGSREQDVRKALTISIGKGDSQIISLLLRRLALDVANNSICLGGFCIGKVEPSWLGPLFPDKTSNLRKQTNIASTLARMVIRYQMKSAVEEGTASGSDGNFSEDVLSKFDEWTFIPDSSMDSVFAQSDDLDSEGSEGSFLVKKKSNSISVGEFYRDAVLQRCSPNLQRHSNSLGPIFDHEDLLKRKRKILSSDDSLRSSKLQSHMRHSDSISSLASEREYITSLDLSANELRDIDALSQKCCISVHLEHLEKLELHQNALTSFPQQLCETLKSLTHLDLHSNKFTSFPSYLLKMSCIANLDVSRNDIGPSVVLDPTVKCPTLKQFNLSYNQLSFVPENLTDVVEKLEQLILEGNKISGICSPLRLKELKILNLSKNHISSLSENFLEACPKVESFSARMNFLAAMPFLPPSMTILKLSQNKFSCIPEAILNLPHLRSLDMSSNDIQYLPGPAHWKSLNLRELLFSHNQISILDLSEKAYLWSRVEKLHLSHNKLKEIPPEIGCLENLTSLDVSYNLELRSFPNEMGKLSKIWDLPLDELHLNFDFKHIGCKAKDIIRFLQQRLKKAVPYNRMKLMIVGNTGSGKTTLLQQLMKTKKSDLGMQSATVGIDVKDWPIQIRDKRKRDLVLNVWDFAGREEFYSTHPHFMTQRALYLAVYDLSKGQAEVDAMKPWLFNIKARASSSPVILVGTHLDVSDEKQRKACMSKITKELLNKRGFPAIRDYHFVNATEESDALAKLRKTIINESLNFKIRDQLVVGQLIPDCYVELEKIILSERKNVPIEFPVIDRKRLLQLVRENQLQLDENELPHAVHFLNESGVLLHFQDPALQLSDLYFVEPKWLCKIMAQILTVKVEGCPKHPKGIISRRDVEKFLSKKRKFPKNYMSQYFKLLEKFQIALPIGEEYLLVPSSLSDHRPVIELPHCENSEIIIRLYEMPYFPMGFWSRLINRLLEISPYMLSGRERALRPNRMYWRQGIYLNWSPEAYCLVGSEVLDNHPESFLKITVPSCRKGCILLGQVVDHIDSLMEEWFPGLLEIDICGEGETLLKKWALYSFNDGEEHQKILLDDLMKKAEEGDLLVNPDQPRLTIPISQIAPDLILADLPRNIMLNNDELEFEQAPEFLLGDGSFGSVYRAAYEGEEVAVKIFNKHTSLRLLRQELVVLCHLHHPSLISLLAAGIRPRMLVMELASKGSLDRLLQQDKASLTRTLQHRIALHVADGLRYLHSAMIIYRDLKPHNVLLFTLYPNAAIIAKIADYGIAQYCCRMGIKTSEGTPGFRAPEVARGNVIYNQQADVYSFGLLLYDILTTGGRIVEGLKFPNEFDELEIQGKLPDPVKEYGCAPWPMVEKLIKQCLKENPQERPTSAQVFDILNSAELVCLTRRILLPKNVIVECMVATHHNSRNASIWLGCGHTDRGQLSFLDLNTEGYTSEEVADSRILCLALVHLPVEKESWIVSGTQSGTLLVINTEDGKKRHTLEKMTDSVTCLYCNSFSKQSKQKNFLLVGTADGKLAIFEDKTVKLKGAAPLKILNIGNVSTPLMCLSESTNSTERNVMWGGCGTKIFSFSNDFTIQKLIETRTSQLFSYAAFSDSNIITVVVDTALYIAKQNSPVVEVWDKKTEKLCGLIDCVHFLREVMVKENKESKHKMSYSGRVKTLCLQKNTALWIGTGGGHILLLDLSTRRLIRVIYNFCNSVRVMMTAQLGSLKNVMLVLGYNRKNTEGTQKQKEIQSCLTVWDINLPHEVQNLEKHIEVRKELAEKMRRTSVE
Experimental: as §1, §2

Chain of Recombinant G2019S-LRRK2 protein (Q5S007 whole entry G2019S): as the sequence (Q5S007 whole entry) above, with G2019S counted along it

SMILES | pIC50 [1] | pIC50 [2]
CCc1c(C(=O)Nc2ccc3[nH]nc(-c4cnco4)c3c2)ccnc1C#N [Example 232, 2-Cyano-3-ethyl-N-(3-(oxazol-5-yl)-1H-indazol-5-yl)isonicotinamide] | > 7.00 | > 7.00
Cc1cc(C#N)cc(C)c1C(=O)Nc1ccc2[nH]nc(-c3ccoc3)c2c1 [Example 10, 4-Cyano-N-(3-(furan-3-yl)-1H-indazol-5-yl)-2,6-dimethylbenzamide] | > 7.00 | > 7.00
Cc1n[nH]c(C#N)c1C(=O)Nc1ccc2[nH]nc(-c3ccoc3)c2c1 [Example 137, 5-Cyano-N-(3-(furan-3-yl)-1H-indazol-5-yl)-3-methyl-1H-pyrazole-4-carboxamide] | > 7.00 | > 7.00
CSc1n[nH]c2ccc(NC(=O)c3nc(Cl)c(C#N)c(C)c3C)cc12 [Example 317, 6-Chloro-5-cyano-3,4-dimethyl-N-(3-(methylthio)-1H-indazol-5-yl)picolinamide] | > 7.00 | > 7.00
Cc1c(C#N)ccc(F)c1C(=O)Nc1ccc2[nH]nc(C)c2c1 [Example 316, 3-Cyano-6-fluoro-2-methyl-N-(3-methyl-1H-indazol-5-yl)benzamide] | > 7.00 | 6.00 to 7.00
Cc1ncc(-c2n[nH]c3ccc(NC(=O)c4ncc(C#N)cc4C)cc23)o1 [Example 129, 5-Cyano-3-methyl-N-(3-(2-methyloxazol-5-yl)-1H-indazol-5-yl)picolinamide] | > 7.00 | > 7.00
CCc1c(C#N)cccc1C(=O)Nc1ccc2[nH]nc(-c3ccoc3)c2c1 [Example 75, 3-Cyano-2-ethyl-N-(3-(furan-3-yl)-1H-indazol-5-yl)benzamide] | > 7.00 | > 7.00
Cc1c(C#N)cnc(C(=O)Nc2ccc3[nH]nc(-c4cn[nH]c4)c3c2)c1C [Example 183, N-(3-(1H-Pyrazol-4-yl)-1H-indazol-5-yl)-5-cyano-3,4-dimethylpicolinamide] | > 7.00 | > 7.00
Cc1nc(C#N)ccc1C(=O)Nc1ccc2[nH]nc(-c3ccoc3)c2c1 [Example 8, 6-Cyano-N-(3-(furan-3-yl)-1H-indazol-5-yl)-2-methylnicotinamide] | > 7.00 | 6.00 to 7.00
C=Cc1nc(C(=O)Nc2ccc3[nH]nc(C4CC4)c3c2)c(C)c(C)c1C#N [Example 332, 5-Cyano-N-(3-cyclopropyl-1H-indazol-5-yl)-3,4-dimethyl-6-vinylpicolinamide] | > 7.00 | 6.00 to 7.00
N#Cc1cnc(C(=O)Nc2ccc3[nH]nc(-c4ccoc4)c3c2)c2sccc12 [Example 116, 4-Cyano-N-(3-(furan-3-yl)-1H-indazol-5-yl)thieno[2,3-c]pyridine-7-carboxamide] | 6.00 to 7.00 | 5.00 to 6.00
Cc1cc(C#N)c(Cl)nc1C(=O)Nc1ccc2[nH]nc(C)c2c1 [Example 307, 6-Chloro-5-cyano-3-methyl-N-(3-methyl-1H-indazol-5-yl)picolinamide] | > 7.00 | 6.00 to 7.00
Cc1nc(C#N)cnc1C(=O)Nc1ccc2[nH]nc(-c3ccoc3)c2c1 [Example 145, 5-Cyano-N-(3-(furan-3-yl)-1H-indazol-5-yl)-3-methylpyrazine-2-carboxamide] | > 7.00 | > 7.00
Cc1c(C#N)cnc(C(=O)Nc2ccc3[nH]nc(-c4cnoc4)c3c2)c1C [Example 168, 5-Cyano-N-(3-(isoxazol-4-yl)-1H-indazol-5-yl)-3,4-dimethylpicolinamide] | > 7.00 | > 7.00
Cc1cc(-c2n[nH]c3ccc(NC(=O)c4ncc(C#N)cc4C)cc23)ccc1F [Example 51, 5-Cyano-N-(3-(4-fluoro-3-methylphenyl)-1H-indazol-5-yl)-3-methylpicolinamide] | > 7.00 | 6.00 to 7.00
CC(C)c1c(C#N)cccc1C(=O)Nc1ccc2[nH]nc(-c3cnco3)c2c1 [Example 225, 3-Cyano-2-isopropyl-N-(3-(oxazol-5-yl)-1H-indazol-5-yl)benzamide] | > 7.00 | > 7.00
COc1cc(-c2n[nH]c3ccc(NC(=O)c4ncc(C#N)c(C)c4C)cc23)cc(C)n1 [Example 219, 5-Cyano-N-(3-(2-methoxy-6-methylpyridin-4-yl)-1H-indazol-5-yl)-3,4-dimethylpicolinamide] | > 7.00 | > 7.00
Cc1nc(C(=O)Nc2ccc3[nH]nc(-c4cnoc4)c3c2)c(C)c(C)c1C#N [Example 210, 5-Cyano-N-(3-(isoxazol-4-yl)-1H-indazol-5-yl)-3,4,6-trimethylpicolinamide] | > 7.00 | > 7.00
N#Cc1cc(C(=O)Nc2ccc3[nH]nc(-c4ccoc4)c3c2)ns1 [Example 91, 5-Cyano-N-(3-(furan-3-yl)-1H-indazol-5-yl)isothiazole-3-carboxamide] | > 7.00 | > 7.00
Cc1cccc(-c2n[nH]c3ccc(NC(=O)c4ncc(C#N)cc4C)cc23)c1 [Example 58, 5-Cyano-3-methyl-N-(3-(m-tolyl)-1H-indazol-5-yl)picolinamide] | > 7.00 | 6.00 to 7.00
N#Cc1ccnc(C(=O)Nc2ccc3[nH]nc(-c4ccoc4)c3c2)n1 [Example 132, 4-Cyano-N-(3-(furan-3-yl)-1H-indazol-5-yl)pyrimidine-2-carboxamide] | > 7.00 | > 7.00
Cc1ccc(-c2n[nH]c3ccc(NC(=O)c4ncc(C#N)cc4C)cc23)o1 [Example 141, 5-Cyano-3-methyl-N-(3-(5-methylfuran-2-yl)-1H-indazol-5-yl)picolinamide] | > 7.00 | > 7.00
Cc1cc(C#N)cnc1C(=O)Nc1ccc2[nH]nc(-c3ccco3)c2c1 [Example 29, 5-Cyano-N-(3-(furan-2-yl)-1H-indazol-5-yl)-3-methylpicolinamide] | > 7.00 | 6.00 to 7.00
Cc1cc(C#N)cnc1C(=O)Nc1cc2c(-c3ccoc3)n[nH]c2cn1 [Example 155] | > 7.00 | 5.00 to 6.00
CCc1n[nH]c2ccc(NC(=O)c3ncc(C#N)c(C(F)(F)F)c3C)cc12 [Example 284, 5-Cyano-N-(3-ethyl-1H-indazol-5-yl)-3-methyl-4-(trifluoromethyl)picolinamide] | > 7.00 | 5.00 to 6.00
Cc1cc(C#N)ncc1C(=O)Nc1ccc2[nH]nc(-c3ccoc3)c2c1 [Example 49, 6-Cyano-N-(3-(furan-3-yl)-1H-indazol-5-yl)-4-methylnicotinamide] | > 7.00 | 6.00 to 7.00
Cc1c(C#N)cnc(C(=O)Nc2ccc3[nH]nc(-c4ccn(C(F)F)n4)c3c2)c1C [Example 204, 5-Cyano-N-(3-(1-(difluoromethyl)-1H-pyrazol-3-yl)-1H-indazol-5-yl)-3,4-dimethylpicolinamide] | > 7.00 | 6.00 to 7.00
Cc1cc(C#N)cnc1C(=O)Nc1ccc2[nH]nc(-c3ccccn3)c2c1 [Example 114, 5-Cyano-3-methyl-N-(3-(pyridin-2-yl)-1H-indazol-5-yl)picolinamide] | 6.00 to 7.00 | 5.00 to 6.00
Cc1ccccc1-c1n[nH]c2ccc(NC(=O)c3ncc(C#N)cc3C)cc12 [Example 98, 5-Cyano-3-methyl-N-(3-(o-tolyl)-1H-indazol-5-yl)picolinamide] | 5.00 to 6.00 | < 5.00
Cc1cc(C#N)cnc1C(=O)Nc1ccc2[nH]nc(-c3ccc(N4CCOCC4)cc3)c2c1 [Example 70, 5-Cyano-3-methyl-N-(3-(4-morpholinophenyl)-1H-indazol-5-yl)picolinamide] | > 7.00 | 6.00 to 7.00

— patent publication US11427558B1, “Indazoles and azaindazoles as LRRK2 inhibitors” (ESCAPE Bio, Inc., priority 2019, dated 2022)
